Measured values reported in patent EP4385508A1, “FURAN FATTY ACIDS FOR ENHANCING MUSCLE MASS” (Centre de Coopération Internationale en Recherche …, priority 2022, dated 2024).

Legend:
Assay type in all cases: cell-based, Mouse
[1] = test system: myosin heavy chain (MyHC); experiment: Slow and fast MyHC protein levels by Western blot in C2C12 myotubes
Procedure: (§1) Mouse myoblasts of the C2C12 cell line (ATCC) were seeded at a plating density of 7000 cells/cm2 in 6-well plates. They were grown in DMEM high glucose (4.5g/l) supplemented with gentamycin (50 µg/mL), amphotericin (50 µg/mL), and fetal calf serum (10%). Terminal differentiation was induced at cell confluence by lowering the medium serum concentration (0.5%).
(§2) When indicated, FuFA-F2 was added to the culture medium at the indicated concentration. For the differentiation studies, FuFA-F2 was added at the confluence at the same time as the change in media condition. Three doses of FuFA-F2 were studied at a final concentration of 1, 10, or 50 µM. Human insulin was used at a concentration of 100 nM.
(§3) Protein levels were assessed by Western blotting. Total proteins were measured using the Bio-Rad protein assay (Hercules, CA, USA) according to the manufacturer's instructions. Total proteins were lysed in RIPA buffer (20mM Tris, 150mM NaCl, 1mM EDTA, 1% NP40, pH 7.5 + complete cocktail protease inhibitors + Pierce phosphatase inhibitors tablet). 40 µg of cell extracts were loaded and blotted onto a nitrocellulose membrane. The membranes were washed, blocked with 5% nonfat milk and incubated in primary antibody overnight at 4°C. […]
(Figure 5A), commonly used as a quantitative marker of intact mitochondria. […]

[2] = test system: mTOR (Ser2448); experiment: mTOR phosphorylation by Western blot in C2C12 myotubes
Procedure: as §1, §2
Protein levels were assessed by Western blotting. Total proteins were measured using the Bio-Rad protein assay (Hercules, CA, USA) according to the manufacturer's instructions. Total proteins were lysed in RIPA buffer (20mM Tris, 150mM NaCl, 1mM EDTA, 1% NP40, pH 7.5 + complete cocktail protease inhibitors + Pierce phosphatase inhibitors tablet). 40 µg of cell extracts were loaded and blotted onto a nitrocellulose membrane. The membranes were washed, blocked with 5% nonfat milk and incubated in primary antibody overnight at 4°C. The membranes were then washed in TBS-Tween (10mM Tris, 140mM NaCl, and 0.2% Tween-20), incubated with the appropriate secondary antibody coupled to horseradish peroxidase, and washed again in TBS-Tween. […] Touch Software (version 5.2.1) (Hercules, CA, USA). […]
It is shown that FuFA-F2 increased protein accretion in myotubes. Protein homeostasis is determined by the dynamic balance between protein synthesis and degradation. Protein synthesis was evaluated by measuring the phosphorylation of Akt (Ser473), mTOR (Ser2448) and 4E-BP1 (Thr37/46), which are major regulators of translation and protein synthesis. […]

[3] = test system: LC3-II/LC3-I; experiment: Autophagic flux, conversion of LC3-I to LC3-II by Western blot in C2C12 myotubes; conditions: whatever the dose
Procedure: as §1, §2
Protein levels were assessed by Western blotting. Total proteins were measured using the Bio-Rad protein assay (Hercules, CA, USA) according to the manufacturer's instructions. […]
AMP activated protein kinase (AMPK) is a crucial cellular energy sensor protein and is activated when intracellular ATP level decreases to regulate autophagy initiation (Hardie et al., 2012, Nat Rev Mol Cell Bio, Vol. 13 (4) : 251-262). […] The autophagy-related signaling was further evaluated by measuring the MTORC1 mediated phosphorylation […] at Ser757 which disrupts the interaction between ULK1 and AMPK. […] Therefore, the autophagic flux was assessed by measuring the conversion of LC3-I to LC3-II, through lipidation.

[4] = test system: Citrate synthase; experiment: Citrate synthase activity of C2C12 myotubes; conditions: 3 days of treatment of C2C12 myotubes
Procedure: as §1, §2
Mitochondrial respiratory complex activities were determined as previously described (Casas et al., 2008, PloS ONE, Vol. 3(6) : e2501). Citrate synthase (CS) activity was measured according to Srere (Srere et al., 1967, Science, Vol. 158(3803) : 936-937) by following the color formation of 5-thio-2-nitrobenzoic acid at 412 nm. The enzymatic activity of complex IV (cytochrome c oxidase) was measured according to Wharton and Tzagoloff (Wharton et al., 1967, Methods in Enzymology, Vol. 10, Edn Elsevier BV, Amsterdam, The Netherlands), a spectrophotometer following the oxidation of reduced cytochrome c at 550 nm, pH 7.4, and 37 °C. Cytochrome c was reduced with sodium dithionite. […]

[5] = test system: myogenin; experiment: Myogenin protein level by Western blot in differentiating C2C12 cells; conditions: 1, 10 and 50 µM, differentiation medium
Procedure: as §1, §2, §3

`CCCCCc1cc(C)c(CCCCCCCCC(=O)O)o1` [FuFA-F2] was tested, and the “expression of slow MyHC” value ([1]; 10 µM) was “significantly increased”, the “fast MyHC” value ([1]; highest dose (50 µM)) was “decrease” and the “mTOR phosphorylation at Ser2448” value ([2]; 3-day pretreatment, 2 hours low-glucose medium, then treatment for 30 minutes, insulin alone 100 nM) was “significant increase”. For the same molecule, the mTOR phosphorylation ([2]; high glucose medium, 3 days, with or without FuFA-F2) was “no difference”, the “rapid effect on mTOR phosphorylation” value ([2]; without pretreatment, 30 min incubation after low-glucose medium) was “not observed” and the “ratio of LC3-II/LC3-I” value [3] was “decreased”. The citrate synthase activity [4] was “no effect” and the expression of myogenin [5] was “no effect”.
